molecular target: N-terminal active peptide segment (MI-N899) of POLQ with ATPase activity (Homo sapiens (Human), UniProt O75417); test: POLQ enzyme activity inhibition experiment (ATPase, NADH-coupled, OD 340 nm); assay type: biochemical; conditions: 100 nM POLQ (N), 100 μM ATP, 300 nM dT50
Procedure: The Envision microplate reader from Perkin Elmer Inc was used to measure the reduction of OD value of NADH at 340 nm, thus reflecting the enzyme activity. Experimental method: The POLQ enzyme was diluted to 100 nM with a reaction buffer (20 mM Tris HCl (pH 7.80), 80 mM KCl, 10 mM MgCl2, 1 mM DTT, 0.01% w/v bovine serum albumin, 0.01% v/v Tween-20, and 5% v/v glycerol). The compounds to be tested were diluted to different concentrations in dimethyl sulfoxide (DMSO) using the Echo 650 pipetting system, and transferred to a 384-well plate, 20 μL/well of 100 nM POLQ was added, and the mixture was incubated at room temperature for 15 minutes. A reaction mixture solution was formulated, and the concentration of each component in the reaction mixture solution was: 100 μM ATP, 300 nM […], 300 μM NADH, 6 mM PEP, 10 U/mL lactate dehydrogenase and 20 U/mL pyruvate kinase. 20 μL/well of reaction mixture solution was added to start the enzyme reaction. […] The concentration range was from 10 μM to 0.0005 μM, and the final concentration of DMSO in the system was 0.2% v/v. The 384-well plate was reacted at room temperature for 20 minutes, and then the OD value at 340 nm was read with an Envision microplate reader. The inhibition rate was calculated, and XLfit software was used to perform fitting to obtain IC50 of the compounds. In the experiment, a blank group and a DMSO group were set up, respectively.

Chain of N-terminal active peptide segment (MI-N899) of POLQ with ATPase activity (O75417 1-899 limits assumed): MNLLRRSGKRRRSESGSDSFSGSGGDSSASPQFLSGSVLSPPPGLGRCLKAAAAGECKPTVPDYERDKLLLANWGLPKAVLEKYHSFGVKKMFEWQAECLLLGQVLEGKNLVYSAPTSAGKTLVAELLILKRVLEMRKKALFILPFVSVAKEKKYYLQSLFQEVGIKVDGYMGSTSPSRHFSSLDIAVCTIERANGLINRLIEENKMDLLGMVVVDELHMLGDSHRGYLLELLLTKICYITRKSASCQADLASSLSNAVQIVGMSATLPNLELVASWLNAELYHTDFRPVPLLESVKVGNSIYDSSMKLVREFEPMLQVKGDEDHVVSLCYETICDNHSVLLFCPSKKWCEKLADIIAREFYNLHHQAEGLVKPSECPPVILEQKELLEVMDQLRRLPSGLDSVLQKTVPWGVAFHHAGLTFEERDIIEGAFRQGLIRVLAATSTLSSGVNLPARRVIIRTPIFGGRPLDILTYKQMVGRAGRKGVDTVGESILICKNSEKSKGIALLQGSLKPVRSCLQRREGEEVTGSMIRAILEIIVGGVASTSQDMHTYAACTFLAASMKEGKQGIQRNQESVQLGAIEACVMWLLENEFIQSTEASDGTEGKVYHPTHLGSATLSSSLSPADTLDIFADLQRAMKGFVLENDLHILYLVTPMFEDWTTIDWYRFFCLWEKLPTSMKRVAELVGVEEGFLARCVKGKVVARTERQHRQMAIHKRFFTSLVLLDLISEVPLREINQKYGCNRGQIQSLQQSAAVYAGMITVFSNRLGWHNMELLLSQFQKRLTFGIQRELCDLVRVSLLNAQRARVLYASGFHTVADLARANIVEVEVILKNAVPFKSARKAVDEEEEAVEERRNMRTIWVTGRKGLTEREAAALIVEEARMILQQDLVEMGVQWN

| IC50 | SMILES |
| --- | --- |
| < 100 nM | COc1ccccc1-c1cnccc1C(=O)Nc1nc2ncc(-c3ccc(C)cc3)nc2s1 [Compound 6, 3-(2-methoxyphenyl)-N-(6-(4-methylphenyl)thiazolo[4,5-b]pyrazin-2-yl)pyridine-4-carboxamide] |
| < 100 nM | COc1ccccc1-c1cnccc1C(=O)Nc1nc2ncc(-c3ccc(C#N)nc3)nc2s1 [Compound 11, N-(6-(6-cyanopyridin-3-yl)thiazolo[4,5-b]pyrazin-2-yl)-3-(2-methoxyphenyl)isonicotinamide] |
| < 100 nM | COc1ccccc1-c1cnccc1C(=O)Nc1nc2ncc(-c3ccc(C#N)c(F)c3)nc2s1 [Compound 12, N-(6-(4-cyano-3-fluorophenyl)thiazolo[4,5-b]pyrazin-2-yl)-3-(2-methoxyphenyl)isonicotinamide] |
| < 100 nM | COc1ccccc1-c1cnccc1C(=O)Nc1nc2ncc(-c3ccc(C#N)cc3F)nc2s1 [Compound 13, N-(6-(4-cyano-2-fluorophenyl)thiazolo[4,5-b]pyrazin-2-yl)-3-(2-methoxyphenyl)isonicotinamide] |
| < 100 nM | COc1cc(-c2cnc3nc(NC(=O)c4ccncc4-c4ccccc4OC)sc3n2)ccc1C#N [Compound 14, N-(6-(4-cyano-3-methoxyphenyl)thiazolo[4,5-b]pyrazin-2-yl)-3-(2-methoxyphenyl)isonicotinamide] |
| < 100 nM | COc1cc(C#N)ccc1-c1cnc2nc(NC(=O)c3ccncc3-c3ccccc3OC)sc2n1 [Compound 15, N-(6-(4-cyano-2-methoxyphenyl)thiazolo[4,5-b]pyrazin-2-yl)-3-(2-methoxyphenyl)isonicotinamide] |
| < 100 nM | N#Cc1cc(-c2ccccc2OC(F)F)c(C(=O)Nc2nc3ncc(-c4ccc(Cl)cc4)nc3s2)cn1 [Compound 18, N-(6-(4-chlorophenyl)thiazolo[4,5-b]pyrazin-2-yl)-6-cyano-4-(2-(difluoromethoxy)phenyl)nicotinamide] |
| < 100 nM | COc1ccccc1-c1cc(C#N)ncc1C(=O)Nc1nc2ncc(-c3ccc(=O)n(C)c3)nc2s1 [Compound 19, 6-cyano-4-(2-methoxyphenyl)-N-(6-(1-methyl-6-oxo-1,6-dihydropyridin-3-yl)thiazolo[4,5-b]pyrazin-2-yl)nicotinamide] |
| < 100 nM | COc1ccccc1-c1cc(C)ncc1C(=O)Nc1nc2ncc(-c3ccc(C#N)cc3)nc2s1 [Compound 31, N-(6-(4-cyanophenyl)thiazolo[4,5-b]pyrazin-2-yl)-4-(2-methoxyphenyl)-6-methylpyridine-3-carboxamide] |
| < 100 nM | COc1ccccc1-c1cc(C#N)ncc1C(=O)Nc1nc2ncc(-c3ccc(C#N)cc3)nc2s1 [Compound 35, 6-cyano-N-(6-(4-cyanophenyl)thiazolo[4,5-b]pyrazin-2-yl)-4-(2-methoxyphenyl)pyridine-3-carboxamide] |
| < 100 nM | COc1ccccc1-c1cc(C(F)(F)F)ncc1C(=O)Nc1nc2ncc(-c3ccc(C#N)cc3)nc2s1 [Compound 36, N-(6-(4-cyanophenyl)thiazolo[4,5-b]pyrazin-2-yl)-4-(2-methoxyphenyl)-6-(trifluoromethyl)pyridine-3-carboxamide] |
| < 100 nM | COc1cc(C#N)ccc1-c1cnccc1C(=O)Nc1nc2ncc(-c3ccc(C#N)cc3)nc2s1 [Compound 40, 3-(4-cyano-2-methoxyphenyl)-N-(6-(4-cyanophenyl)thiazolo[4,5-b]pyrazin-2-yl)pyridine-4-carboxamide] |

The next lines start with the compound.

| SMILES | IC50 |
| --- | --- |
| COc1ccccc1-c1cnccc1C(=O)Nc1nc2ccc(-c3ccc(Cl)cc3)nc2s1 [Compound 1, N-(5-(4-chlorophenyl)thiazolo[5,4-b]pyridin-2-yl)-3-(2-methoxyphenyl)pyridine-4-carboxamide] | 100 to 500 nM |
| COc1ccccc1-c1cnccc1C(=O)Nc1nc2ncc(-c3ccc(Cl)cc3)nc2s1 [Compound 2, N-(6-(4-chlorophenyl)thiazolo[4,5-b]pyrazin-2-yl)-3-(2-methoxyphenyl)pyridine-4-carboxamide] | < 100 nM |
| COc1cccc(F)c1-c1cnccc1C(=O)Nc1nc2ncc(-c3ccc(Cl)cc3)nc2s1 [Compound 3, N-(6-(4-chlorophenyl)thiazolo[4,5-b]pyrazin-2-yl)-3-(2-fluoro-6-methoxyphenyl)pyridine-4-carboxamide] | < 100 nM |
| COc1ccccc1-c1cc(C)ncc1C(=O)Nc1nc2ncc(-c3ccc(Cl)cc3)nc2s1 [Compound 4] | < 100 nM |
| COc1ccccc1-c1cnccc1C(=O)Nc1nc2ncc(-c3cccc(Cl)c3)nc2s1 [Compound 5, N-(6-(3-chlorophenyl)thiazolo[4,5-b]pyrazin-2-yl)-3-(2-methoxyphenyl)pyridine-4-carboxamide] | < 100 nM |
| COc1ccc(-c2cnc3nc(NC(=O)c4ccncc4-c4ccccc4OC)sc3n2)cc1 [Compound 7, 3-(2-methoxyphenyl)-N-(6-(4-methoxyphenyl)thiazolo[4,5-b]pyrazin-2-yl)pyridine-4-carboxamide] | < 100 nM |
| COc1ccccc1-c1cnccc1C(=O)Nc1nc2cnc(-c3ccc(Cl)cc3)nc2s1 [Compound 8, N-(5-(4-chlorophenyl)thiazolo[5,4-d]pyrimidin-2-yl)-3-(2-methoxyphenyl)pyridine-4-carboxamide] | < 100 nM |
| COc1ccccc1-c1cnccc1C(=O)Nc1nc2ncc(-c3ccc(Cl)cc3)cc2s1 [Compound 10, N-(6-(4-chlorophenyl)thiazolo[4,5-b]pyridin-2-yl)-3-(2-methoxyphenyl)isonicotinamide] | < 100 nM |
| COc1cccc(F)c1-c1cc(C#N)ncc1C(=O)Nc1nc2ncc(-c3ccc(Cl)cc3)nc2s1 [Compound 17, N-(6-(4-chlorophenyl)thiazolo[4,5-b]pyrazin-2-yl)-6-cyano-4-(2-fluoro-6-methoxyphenyl)nicotinamide] | < 100 nM |
| COc1ccc(C#N)cc1-c1cc(C)ncc1C(=O)Nc1nc2ncc(-c3ccc(C4CC4)cn3)nc2s1 [Compound 22, 4-(5-cyano-2-methoxyphenyl)-N-(6-(5-cyclopropylpyridin-2-yl)thiazolo[4,5-b]pyrazin-2-yl)-6-methylnicotinamide] | < 100 nM |
| COc1ccccc1-c1cc(C#N)ncc1C(=O)Nc1nc2ncc(-c3ccc(Cl)cc3)nc2s1 [Compound 28, N-(6-(4-chlorophenyl)thiazolo[4,5-b]pyrazin-2-yl)-6-cyano-4-(2-methoxyphenyl)pyridine-3-carboxamide] | < 100 nM |
| C#Cc1ccccc1-c1cnccc1C(=O)Nc1nc2ncc(-c3ccc(Cl)cc3)nc2s1 [Compound 29, N-(6-(4-chlorophenyl)thiazolo[4,5-b]pyrazin-2-yl)-3-(2-ethynylphenyl)pyridine-4-carboxamide] | < 100 nM |
| N#Cc1ccc(C(=O)Nc2nc3ncc(-c4ccc(Cl)cc4)nc3s2)c(-c2ccccc2C#N)c1 [Compound 37, N-(6-(4-chlorophenyl)thiazolo[4,5-b]pyrazin-2-yl)-2′,5-dicyano-[1,1′-biphenyl]-2-carboxamide] | < 100 nM |
| C#Cc1ccccc1-c1cc(C#N)ncc1C(=O)Nc1nc2ncc(-c3ccc(Cl)cc3)nc2s1 [Compound 38, N-(6-(4-chlorophenyl)thiazolo[4,5-b]pyrazin-2-yl)-6-cyano-4-(2-ethynylphenyl)pyridine-3-carboxamide] | < 100 nM |
| N#Cc1ccc(-c2cnc3nc(NC(=O)c4cnc(C#N)cc4N4CCOCC4)sc3n2)cc1 [Compound 39, 6-cyano-N-(6-(4-cyanophenyl)thiazolo[4,5-b]pyrazin-2-yl)-4-morpholinopyridine-3-carboxamide] | < 100 nM |
